Molecular target: T1, DDR2 (Homo sapiens, UniProt Q16832)
T1 construct: expressed in transfected cells; host or cells: HEK293T
T1 sequence (Q16832 22-855): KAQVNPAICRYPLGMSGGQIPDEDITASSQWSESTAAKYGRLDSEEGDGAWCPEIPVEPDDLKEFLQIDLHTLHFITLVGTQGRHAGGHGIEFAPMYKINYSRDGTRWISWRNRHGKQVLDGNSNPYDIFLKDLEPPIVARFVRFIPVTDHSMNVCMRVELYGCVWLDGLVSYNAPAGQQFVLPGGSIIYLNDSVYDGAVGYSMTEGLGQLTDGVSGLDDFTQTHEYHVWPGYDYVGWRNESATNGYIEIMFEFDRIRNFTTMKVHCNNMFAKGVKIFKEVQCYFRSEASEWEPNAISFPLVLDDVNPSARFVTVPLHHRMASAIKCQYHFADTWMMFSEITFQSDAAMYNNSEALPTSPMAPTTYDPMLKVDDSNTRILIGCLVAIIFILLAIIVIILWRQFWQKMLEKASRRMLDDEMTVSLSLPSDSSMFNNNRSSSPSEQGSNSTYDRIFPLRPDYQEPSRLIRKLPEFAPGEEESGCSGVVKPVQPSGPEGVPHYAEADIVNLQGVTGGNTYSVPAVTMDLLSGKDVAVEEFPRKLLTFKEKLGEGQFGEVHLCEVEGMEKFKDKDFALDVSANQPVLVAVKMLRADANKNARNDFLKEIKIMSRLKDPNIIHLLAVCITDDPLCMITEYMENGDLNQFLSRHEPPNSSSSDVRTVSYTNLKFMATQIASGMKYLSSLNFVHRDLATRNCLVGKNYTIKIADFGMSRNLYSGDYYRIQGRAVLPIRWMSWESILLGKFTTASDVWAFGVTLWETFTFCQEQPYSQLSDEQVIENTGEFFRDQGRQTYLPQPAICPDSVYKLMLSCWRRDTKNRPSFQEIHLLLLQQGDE
Assay: DDR2 activation (anti-phosphotyrosine Western blot) in HEK293T cells overexpressing DDR2, collagen-stimulated
Assay type: cell-based
Conditions: 10 μM pretreatment 30 minutes, then 50 μg/mL type I collagen 12 hours
Description: FIG. 1A, FIG. 1B, FIG. 1C, FIG. 1D, FIG. 1E, FIG. 1F, FIG. 1G, FIG. 1H, FIG. 1I, FIG. 1J, FIG. 1K, FIG. 1L, FIG. 1M, and FIG. 1N show WRG-28 and atovaquone (Av) suppress the activation of DDR2 and calcium release-activated calcium (CRAC) channel. FIG. 1A indicates HEK293T cells were transiently overexpressed with DDR2 and then pretreated with different compounds (10 μM), including WRG-28, Av, donepezil hydrochloride (Dh), terazosin hydrochloride (Th), verapamil and flecainide for 30 minutes. Verapamil and flecainide were used as negative control here. After that, cells were treated with 50 μg/mL type I collagen for 12 hours. Cell lysates were harvested and subjected to Western blot analysis with antibodies against phosphotyrosine antibody (clone 4G10), DDR2, and β-actin. […] CRAC channel activity was evaluated by applying 1 μM thapsigargin (Thap.) in a calcium-free solution to deplete the endoplasmic reticulum calcium store, followed by the reintroduction of 2 mM Ca^2+ in an external solution. […] Further analyses are presented in FIG. 1I and FIG. 1J, where the second peak of each wave and rate of entry were analyzed. […] The Orai1 and Stim1 puncta in HEK293T cells overexpressed with CFP-Orai1/Stim1-mCherry were assessed. […]
Cell lysates were harvested in RIPA buffer (150 mM NaCl, 1 mM EGTA, 50 mM Tris pH 7.4, 10% glycerol, 1% Triton X-100, 1% sodium deoxycholate, 0.1% SDS, and protease inhibitor cocktail) and collected from culture dish with cell scrapers. […] The protein expression levels were assessed by specific primary antibodies, including antibodies against phosphotyrosine (clone 4G10; Millipore), DDR2 (R&D), α-SMA (Sigma), Collagen 1a1 (Boster), E-cadherin (BD Biosciences), SGLT2 (Proteintech), NHE1 (Novus) and β-actin (Clone C4, Millipore), followed by incubating with secondary antibodies conjugated with HRP and detected by ECL kit (Thermo Scientific).
To examine the impact of these compounds on DDR2 activation, HEK293T cells overexpressing DDR2 were pretreated with various compounds. […] The activation of DDR2 was evaluated using an anti-phosphotyrosine antibody. […]

activation of DDR2 (phosphotyrosine): suppress
Compound: CCNS(=O)(=O)c1ccc(COc2ccc3nc4ccc(=O)cc-4oc3c2)cc1 [WRG-28]

Reference: patent US20250339443A1, “METHOD FOR TREATING OR PREVENTING CALCIUM RELEASE-ACTIVATED CALCIUM CHANNEL OR DISCOIDIN DOMAIN RECEPTOR 2 RELATED DISORDERS OR CONDITIONS” (LumiSTAR Biotechnology, Inc., priority 2023, published 2025)
